In patent US9580390B2, “Indazole compounds as kinase inhibitors and method of treating cancer with same” (University Health Network, priority 2011, dated 2017):
Where two headings read alike, the source gives them in different places.

Key:
human TTK = target: T1, human TTK (Homo sapiens, UniProt P33981); assay: TTK inhibition assay (indirect ELISA); format: biochemical; conditions: read-out: TTK IC50 Range
T1 construct: amino terminal GST fusion of full length human TTK; purchased Invitrogen
T1 sequence (P33981 1-857): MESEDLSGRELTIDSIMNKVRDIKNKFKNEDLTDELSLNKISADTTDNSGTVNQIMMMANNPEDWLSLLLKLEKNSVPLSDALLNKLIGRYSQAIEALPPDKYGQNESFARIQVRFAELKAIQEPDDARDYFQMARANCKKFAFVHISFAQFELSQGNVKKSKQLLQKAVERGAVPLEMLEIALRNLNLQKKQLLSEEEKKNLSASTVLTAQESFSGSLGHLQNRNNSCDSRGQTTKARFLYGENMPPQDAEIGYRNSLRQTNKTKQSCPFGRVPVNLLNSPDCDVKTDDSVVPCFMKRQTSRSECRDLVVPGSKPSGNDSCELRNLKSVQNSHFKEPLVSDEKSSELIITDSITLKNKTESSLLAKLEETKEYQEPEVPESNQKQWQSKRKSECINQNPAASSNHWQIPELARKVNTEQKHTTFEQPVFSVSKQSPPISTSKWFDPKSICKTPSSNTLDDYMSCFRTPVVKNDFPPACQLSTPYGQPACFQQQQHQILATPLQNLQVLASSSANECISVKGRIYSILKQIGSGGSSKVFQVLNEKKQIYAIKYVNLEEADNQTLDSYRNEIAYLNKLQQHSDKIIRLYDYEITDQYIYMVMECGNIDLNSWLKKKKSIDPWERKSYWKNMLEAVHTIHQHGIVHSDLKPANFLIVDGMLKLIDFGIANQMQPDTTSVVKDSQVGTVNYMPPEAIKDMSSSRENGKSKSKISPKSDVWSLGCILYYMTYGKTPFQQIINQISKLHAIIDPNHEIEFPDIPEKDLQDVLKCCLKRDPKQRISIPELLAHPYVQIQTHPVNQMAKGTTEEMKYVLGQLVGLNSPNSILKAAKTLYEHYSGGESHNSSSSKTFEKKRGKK

[1] = test system: ovarian cancer cells (PA-1); assay: Cancer cell line growth inhibition (SRB assay); format: cell-based; conditions: read-out: Cancer Cell Line GI50 Range PA-1
[2] = test system: colon cancer cells (HCT116); assay: Cancer cell line growth inhibition (SRB assay); format: cell-based; conditions: Homo sapiens, HCT-116, read-out: Cancer Cell Line GI50 Range HCT116
[3] = PA-1 ovarian cancer cells, SRB assay
[4] = HCT116 colon cancer cells, SRB assay

| SMILES | IC50 (human TTK) [nM] | GI50 [1, 3] [nM] | GI50 [2, 4] [nM] | GI50 ([1]; Homo sapiens, PA-1) [nM] | GI50 [2] [nM] |
| --- | --- | --- | --- | --- | --- |
| CN1CCC(Oc2ccc(-c3n[nH]c4ccc(C(=O)NCC5(c6ccccc6)CCOCC5)cc34)cc2)CC1 [Example A473, 3-(4-((1-methylpiperidin-4-yl)oxy)phenyl)-N-((4-phenyltetrahydro-2H-pyran-4-yl)methyl)-1H-indazole-5-carboxamide] | < 100 | 100 to 500 | 100 to 500 |  |  |
| O=C(N[C@H](c1ccccn1)C1CC1)c1ccc2[nH]nc(-c3ccc(N4CCN(C5COC5)CC4)cc3)c2c1 [Example A401, (S)-N-(cyclopropyl(pyridin-2-yl)methyl)-3-(4-(4-(oxetan-3-yl)piperazin-1-yl)phenyl)-1H-indazole-5-carboxamide] | < 100 |  |  | < 100 | < 100 |
| C[C@@H]1CN(c2ccc(-c3n[nH]c4ccc(C(=O)NCC5(N6CCOCC6)CCCCC5)cc34)cc2)C[C@H](C)O1 [Example A454, 3-(4-((2S,6R)-2,6-dimethylmorpholino)phenyl)-N-((1-morpholinocyclohexyl)methyl)-1H-indazole-5-carboxamide] | < 100 | 100 to 500 | 100 to 500 |  |  |
| O=C(N[C@@H](c1ccccn1)C1CC1)c1ccc2[nH]nc(-c3ccc(OC4CC5CCC(C4)N5C4COC4)cc3)c2c1 (stereo partly drawn) [Example A352, N-((R)-cyclopropyl(pyridin-2-yl)methyl)-3-(4-(((1R,3R,5S)-8-(oxetan-3-yl)-8-azabicyclo[3.2.1]octan-3-yl)oxy)phenyl)-1H-indazole-5-carboxamide] | < 100 |  |  | 100 to 500 | 100 to 500 |
| CN1CCC(Oc2ccc(-c3n[nH]c4ccc(C(=O)NCC5(N6CCOCC6)CCC(F)(F)CC5)cc34)cc2)CC1 [Example A458, N-((4,4-difluoro-1-morpholinocyclohexyl)methyl)-3-(4-((1-methylpiperidin-4-yl)oxy)phenyl)-1H-indazole-5-carboxamide] | < 100 | 100 to 500 | 100 to 500 |  |  |
| O=C(N[C@H](c1ccccc1)C1CC1)c1ccc2[nH]nc(-c3ccc(OC4CCN(C(=O)CO)CC4)cc3)c2c1 [Example A382, (S)-N-(cyclopropyl(phenyl)methyl)-3-(4-((1-(2-hydroxyacetyl)piperidin-4-yl)oxy)phenyl)-1H-indazole-5-carboxamide] | < 100 |  |  | < 100 | < 100 |
| CCC(CNC(=O)c1ccc2[nH]nc(-c3ccc(N4CCOCC4)cc3)c2c1)c1ccccc1 (stereo not drawn) [Example A407, 3-(4-morpholinophenyl)-N-(2-phenylbutyl)-1H-indazole-5-carboxamide] | < 100 |  |  | > 500 | > 500 |
| O=C(CC1(c2ccccc2)COC1)Nc1ccc2[nH]nc(-c3ccc(OC4CCN(C5COC5)CC4)cc3)c2c1 [Example A462, N-(3-(4-((1-(oxetan-3-yl)piperidin-4-yl)oxy)phenyl)-1H-indazol-5-yl)-2-(3-phenyloxetan-3-yl)acetamide] | 100 to 500 |  |  | > 500 | > 500 |
| COc1ccc(NC(=O)Nc2ccc3[nH]nc(-c4ccc(OC5CCN(C)CC5)cc4)c3c2)c(C)c1 [Example A81, 1-(4-methoxy-2-methylphenyl)-3-(3-(4-((1-methylpiperidin-4-yl)oxy)phenyl)-1H-indazol-5-yl)urea] | 100 to 500 | 100 to 500 | 100 to 500 |  |  |
| CCC(CC)(CNC(=O)c1ccc2[nH]nc(-c3ccc(OC4CCN(C5COC5)CC4)cc3)c2c1)N1CCOCC1 [Example A466, N-(2-ethyl-2-morpholinobutyl)-3-(4-((1-(oxetan-3-yl)piperidin-4-yl)oxy)phenyl)-1H-indazole-5-carboxamide] | < 100 |  |  | < 100 | 100 to 500 |

Other lines, results leading:

| IC50 (human TTK) [nM] | GI50 [1, 3] [nM] | GI50 [2, 4] [nM] | GI50 ([1]; Homo sapiens, PA-1) [nM] | GI50 [2] [nM] | SMILES |
| --- | --- | --- | --- | --- | --- |
| < 100 | 100 to 500 | 100 to 500 |  |  | CN1CCC(Oc2ccc(-c3n[nH]c4ccc(C(=O)NCC5(c6ccncc6)CCCCC5)cc34)cc2)CC1 [Example A480, 3-(4-((1-methylpiperidin-4-yl)oxy)phenyl)-N-((1-(pyridin-4-yl)cyclohexyl)methyl)-1H-indazole-5-carboxamide] |
| < 100 |  |  | < 100 | < 100 | O=C(NCC1(N2CCOCC2)CCCCC1)c1ccc2[nH]nc(-c3ccc(OC4CCN(C5COC5)CC4)cc3)c2c1 [Example A506, N-((1-morpholinocyclohexyl)methyl)-3-(4-((1-(oxelan-3-yl)piperidin-4-yl)oxy)phenyl)-1H-indazole-5-carboxamide] |
| < 100 | 100 to 500 | 100 to 500 |  |  | CN1CCC(Oc2ccc(-c3n[nH]c4ccc(C(=O)NCC5(N6CCOCC6)CCCC5)cc34)cc2)CC1 [Example A428, 3-(4-((1-methylpiperidin-4-yl)oxy)phenyl)-N-((1-morpholinocyclopentyl)methyl)-1H-indazole-5-carboxamide] |
| < 100 |  |  | < 100 | < 100 | O=C(N[C@H](c1ccccn1)C1CCCC1)c1ccc2[nH]nc(-c3ccc(OC4CCN(CCO)CC4)cc3)c2c1 [Example A233, (S)-N-(cyclopentyl(pyridin-2-yl)methyl)-3-(4-((1-(2-hydroxyethyl)piperidin-4-yl)oxy)phenyl)-1H-indazole-5-carboxamide] |
| < 100 | 100 to 500 | 100 to 500 |  |  | CN1CC[C@@H](Oc2ccc(-c3n[nH]c4ccc(C(=O)NCC5(N6CCOCC6)CCCCC5)cc34)cc2)C1 [Example A481, (R)-3-(4-((1-methylpyrrolidin-3-yl)oxy)phenyl)-N-((1-morpholinocyclohexyl)methyl)-1H-indazole-5-carboxamide] |
| < 100 |  |  | 100 to 500 | 100 to 500 | O=C(NC(c1ccccn1)C1CC1)c1ccc2[nH]nc(-c3ccc(N4CCN(CCO)CC4)cc3)c2c1 (stereo not drawn) [Example A384, N-(cyclopropyl(pyridin-2-yl)methyl)-3-(4-(4-(2-hydroxyethyl)piperazin-1-yl)phenyl)-1H-indazole-5-carboxamide] |
| < 100 |  |  | 100 to 500 | 100 to 500 | O=C(NC(c1ccccn1)C1CC1)c1ccc2[nH]nc(-c3ccc(N4CCOCC4)cc3)c2c1 (stereo not drawn) [Example A383, N-(cyclopropyl(pyridin-2-yl)methyl)-3-(4-morpholinophenyl)-1H-indazole-5-carboxamide] |
| < 100 |  |  | 100 to 500 | 100 to 500 | O=C(NC(c1ccccc1)C(F)F)c1ccc2[nH]nc(-c3ccc(OC4CCN(C5COC5)CC4)cc3)c2c1 (stereo not drawn) [Example A226, N-(2,2-difluoro-1-phenylethyl)-3-(4-((1-(oxetan-3-yl)piperidin-4-yl)oxy)phenyl)-1H-indazole-5-carboxamide] |
| < 100 |  |  | 100 to 500 | 100 to 500 | O=C(NC(c1ccccn1)C1CCOCC1)c1ccc2[nH]nc(-c3ccc(OC4CCN(C5COC5)CC4)cc3)c2c1 (stereo not drawn) [Example A293, 3-(4-((1-(oxetan-3-yl)piperidin-4-yl)oxy)phenyl)-N-(pyridin-2-yl(tetrahydro-2H-pyran-4-yl)methyl)-1H-indazole-5-carboxamide] |
| < 100 |  |  | 100 to 500 | 100 to 500 | O=C(NCC1(c2cccs2)CCOCC1)c1ccc2[nH]nc(-c3ccc(N4CCOCC4)cc3)c2c1 [Example A436, 3-(4-morpholinophenyl)-N-((4-(thiophen-2-yl)tetrahydro-2H-pyran-4-yl)methyl)-1H-indazole-5-carboxamide] |
| < 100 | 100 to 500 | 100 to 500 |  |  | CN1CCC(Oc2ccc(-c3n[nH]c4ccc(C(=O)NCC5(c6ccccc6)CC5)cc34)cc2)CC1 [Example A471, 3-(4-((1-methylpiperidin-4-yl)oxy)phenyl)-N-((1-phenylcyclopropyl)methyl)-1H-indazole-5-carboxamide] |
| < 100 | 100 to 500 | 100 to 500 |  |  | CN1CCC(Oc2ccc(-c3n[nH]c4ccc(C(=O)NCC5(c6ccccc6)CCCCC5)cc34)cc2)CC1 [Example A470, 3-(4-((1-methylpiperidin-4-yl)oxy)phenyl)-N-((1-phenylcyclohexyl)methyl)-1H-indazole-5-carboxamide] |
| < 100 |  |  | > 500 | > 500 | O=C(NCC1(OC2CCCC2)CCCCC1)c1ccc2[nH]nc(-c3ccc(N4CCOCC4)cc3)c2c1 [Example A435, N-((1-(cyclopentyloxy)cyclohexyl)methyl)-3-(4-morpholinophenyl)-1H-indazole-5-carboxamide] |
